Measurements taken from patent publication US20160016944A1, “FUNGICIDAL 3--HETEROCYCLE DERIVATIVES” (priority 2013, published 2016).
Where two headings read alike, the source gives them in different places. Marks after values point to notes of the source that are not given here.

Assays:
[1] = logP by HPLC on reversed phase columns (EEC directive 79/831 Annex V.A8); details: for LogP: method [a]: HPLC/LC-MS at pH 2.7, 0.1% formic acid in water / acetonitrile gradient, Table 1; for chromatographic logP: pH 2.7
Method: (§2) Calibration was done with not branched alkan2-ones (with 3 to 16 carbon atoms) with known log P-values (measurement of log P values using retention times with linear interpolation between successive alkanones). lambda-maX-values were determined using UV-spectra from 200 nm to 400 nm and the peak values of the chromatographic signals.

[2] = test system: Phytophthora infestans; type: in vivo; details: tomato plants, preventive spray, 500 ppm active ingredient, evaluated 5 days after inoculation
[3] = test system: Pyrenophora teres; experiment: In vivo preventive test on Pyrenophora teres (net blotch on barley); details: barley plants, preventive spray, 500 ppm active ingredient, evaluated 14 days after inoculation
Method: (§1) The tested active ingredients are prepared by homogenization in a mixture of acetone/Dimethyl sulfoxide/Tween®, and then diluted with water to obtain the desired active material concentration.
The young plants of barley are treated by spraying the active ingredient prepared as described above. Control plants are treated only with an aqueous solution of acetone/Dimethyl sulfoxide/Tween®.
After 24 hours, the plants are contaminated by spraying the leaves with an aqueous suspension of Pyrenophora teres spores. The contaminated barley plants are incubated for 48 hours at 20° C. and at 100% relative humidity and then for 12 days at 20° C. and at 70-80% relative humidity.
The test is evaluated 14 days after the inoculation. 0% means an efficacy which corresponds to that of the control plants while an efficacy of 100% means that no disease is observed.

[4] = test system: Plasmopara viticola; experiment: Plasmopara test (grapevines) / preventive; type: in vivo; details: grapevine young plants, preventive spray, 10 ppm active ingredient, evaluated 6 days after inoculation
Method: To produce a suitable preparation of active compound, 1 part by weight of active compound is mixed with the stated amounts of solvent and emulsifier, and the concentrate is diluted with water to the desired concentration.
To test for preventive activity, young plants are sprayed with the preparation of active compound at the stated rate of application. After the spray coating has dried on, the plants are inoculated with an aqueous spore suspension of Plasmopara viticola and then remain for 1 day in an incubation cabinet at approximately 20° C. and a relative atmospheric humidity of 100%. The plant is subsequently placed for 4 days in a greenhouse at approximately 21° C. and a relative atmospheric humidity of approximately 90%. The plants are then misted and placed for 1 day in an incubation cabinet.
The test is evaluated 6 days after the inoculation. 0% means an efficacy which corresponds to that of the untreated control, while an efficacy of 100% means that no disease is observed.

[5] = test system: Botrytis cinerea; experiment: In vivo preventive test on Botrytis cinerea (grey mould); details: gherkin plants, preventive spray, 500 ppm active ingredient, evaluated 4 to 5 days after inoculation
Method: as §1
The young plants of gherkin are treated by spraying the active ingredient prepared as described above. Control plants are treated only with an aqueous solution of acetone/Dimethyl sulfoxide/Tween®.
After 24 hours, the plants are contaminated by spraying the leaves with an aqueous suspension of Botrytis cinerea spores. The contaminated gherkin plants are incubated for 4 to 5 days at 17° C. and at 90% relative humidity.
The test is evaluated 4 to 5 days after the inoculation. 0% means an efficacy which corresponds to that of the control plants while an efficacy of 100% means that no disease is observed.

[6] = pH 2.7
Method: as §2

SMILES: Cn1oc(=S)nc1C(=NOCc1csc(NC(=O)OC2CC3CCC2C3)n1)c1ccccc1 (centres unmarked) [Example 12]
- LogP [1]: 4.06^[a]

SMILES: Cn1oc(=S)nc1/C(=N\OCc1csc(NC(=O)OC(C)(C)C)n1)c1ccccc1 [Example 30, tert-butyl {4-[({[(Z)-(2-methyl-5-thioxo-2,5-dihydro-1,2,4-oxadiazol-3-yl)(phenyl)methylene]amino}oxy)methyl]-1,3-thiazol-2-yl}carbamate]
- % efficacy [2]: 100%
- % efficacy [3]: 86%
- % efficacy [4]: 79%
- chromatographic logP [1]: 3.53

SMILES: Cn1oc(=S)nc1C(=NOCc1csc(NC(=O)OCCc2ccccc2)n1)c1ccccc1 [Example 8]
- % efficacy [2]: 79%
- LogP [1]: 3.76^[a]

SMILES: C#CCC(C)OC(=O)Nc1nc(CON=C(c2ccccc2)c2nc(=S)on2C)cs1 (centres unmarked) [Example 22]
- % efficacy [2]: 74%
- LogP [1]: 3.23^[a]

SMILES: Cn1oc(=S)nc1C(=NOCc1csc(NC(=O)OCCOc2ccccc2)n1)c1ccccc1 [Example 27]
- % efficacy [2]: 90%
- LogP [1]: 4.18^[a]

SMILES: Cn1c(C(=NOCc2cccc(NC(=O)OCc3ccccc3)n2)c2ccccc2)noc1=S [Example 4]
- LogP [1]: 4.58^[a]

SMILES: CC(COc1ccccc1)OC(=O)Nc1nc(CON=C(c2ccccc2)c2nc(=S)on2C)cs1 (centres unmarked) [Example 31]
- LogP [1]: 4.44^[a]

SMILES: Cn1c(/C(=N\OCc2cccc(N)n2)c2ccccc2)noc1=S [Example 7, 3-[(Z)-{[(6-aminopyridin-2-yl)methoxy]imino}(phenyl)methyl]-4-methyl-1,2,4-oxadiazole-5(4H)-thione]
- % efficacy [2]: 99%
- chromatographic logP [1]: 1.59

SMILES: Cn1oc(=S)nc1C(=NOCc1csc(NC(=O)c2ccccc2)n1)c1ccccc1 [Example 23]
- % efficacy [5]: 99%
- % efficacy [2]: 71%
- LogP [1]: 3.31^[a]

SMILES: Cn1oc(=S)nc1C(=NOCc1csc(NC(=O)COc2ccccc2)n1)c1ccccc1 [Example 10]
- % efficacy [5]: 74%
- % efficacy [2]: 84%
- LogP [6]: 3.31^[a]

SMILES: C#CCCOC(=O)Nc1cccc(CON=C(c2ccccc2)c2nc(=S)on2C)n1 [Example 26]
- LogP [1]: 3.15^[a]

SMILES: C#CCCCOC(=O)Nc1nc(CON=C(c2ccccc2)c2nc(=S)on2C)cs1 [Example 29]
- % efficacy [5]: 71%
- LogP [6]: 3.19^[a]

SMILES: C#CCCC(C)OC(=O)Nc1nc(CON=C(c2ccccc2)c2nc(=S)on2C)cs1 (centres unmarked) [Example 25]
- LogP [1]: 3.41^[a]

SMILES: CCCCC(CC)COC(=O)Nc1nc(CON=C(c2ccccc2)c2nc(=S)on2C)cs1 (centres unmarked) [Example 32]
- LogP [1]: 5.55^[a]

SMILES: CCCCCC(=O)Nc1nc(CON=C(c2ccccc2)c2nc(=S)on2C)cs1 [Example 16]
- % efficacy [5]: 95%
- % efficacy [2]: 76%
- LogP [6]: 3.63^[a]

SMILES: Cn1oc(=S)nc1C(=NOCc1csc(NC(=O)C2COc3ccccc3O2)n1)c1ccccc1 (centres unmarked) [Example 11]
- % efficacy [2]: 76%
- % efficacy [4]: 82%
- LogP [6]: 3.50^[a]

SMILES: Cn1oc(=S)nc1C(=NOCc1csc(NC(=O)C(C)(C)C)n1)c1ccccc1 [Example 21]
- LogP [1]: 3.31^[a]

SMILES: CNC(=N\O)/C(=N\OCc1cccc(NC(=O)OC(C)(C)C)n1)c1ccccc1 [VIII-1, tert-butyl {6-[({[(1Z,2Z)-2-(hydroxyimino)-2-(methylamino)-1-phenylethylidene]amino}oxy)methyl]pyridin-2-yl}carbamate]
- chromatographic logP [1]: 2.6

SMILES: C#CCCOC(=O)Nc1cccc(CO/N=C(/c2ccccc2)c2noc(=S)n2C)n1 [Example 2, but-3-yn-1-yl {6-[({[(Z)-(4-methyl-5-thioxo-4,5-dihydro-1,2,4-oxadiazol-3-yl)(phenyl)methylene]amino}oxy)methyl]pyridin-2-yl}carbamate]
- % efficacy [2]: 93%
- chromatographic logP [1]: 3.87

SMILES: CN1C(C(=NOCc2cccc(NC(=O)OC(C)(C)C)n2)c2ccccc2)=NOS1=O (centres unmarked) [Example 28]
- LogP [1]: 4.18^[a]

SMILES: CCCCCOC(=O)Nc1cccc(CON=C(c2ccccc2)c2noc(=S)n2C)n1 [Example 5]
- % efficacy [2]: 80%
- LogP [1]: 5.05^[a]

SMILES: C#CCCOC(=O)Nc1cccc(CON=C(c2ccccc2)c2nc(=NC#N)on2C)n1 [Example 19]
- LogP [1]: 3.13^[a]

SMILES: C#CCCOC(=O)Nc1nc(CON=C(c2ccccc2)c2nc(=S)on2C)cs1 [Example 9]
- % efficacy [2]: 89%
- LogP [1]: 2.96^[a]

SMILES: CCCCC(=O)Nc1cccc(CON=C(c2ccccc2)c2noc(=S)n2C)n1 [Example 6]
- % efficacy [2]: 99%
- % efficacy [3]: 96%
- LogP [6]: 4.18^[a]

SMILES: Cn1oc(=S)nc1C(=NOCc1csc(NC(=O)C2(C)CC2)n1)c1ccccc1 [Example 15]
- % efficacy [5]: 95%
- % efficacy [2]: 99%
- LogP [6]: 3.11^[a]

SMILES: C#CCCCCOC(=O)Nc1nc(CON=C(c2ccccc2)c2nc(=S)on2C)cs1 [Example 17]
- % efficacy [2]: 100%
- LogP [1]: 3.44^[a]

SMILES: CCC(C)SC(=O)Nc1nc(CON=C(c2ccccc2)c2nc(=S)on2C)cs1 (centres unmarked) [Example 18]
- % efficacy [2]: 83%
- LogP [1]: 3.90^[a]

SMILES: Cn1oc(=S)nc1/C(=N\OCc1csc(N)n1)c1ccccc1 [Example 20, 3-[(Z)-{[(2-amino-1,3-thiazol-4-yl)methoxy]imino}(phenyl)methyl]-2-methyl-1,2,4-oxadiazole-5(2H)-thione]
- chromatographic logP [1]: 1.53

SMILES: Cn1c(/C(=N\OCc2cccc(NC(=O)OC(C)(C)C)n2)c2ccccc2)noc1=S [Example 1, tert-butyl {6-[({[(Z)-(4-methyl-5-thioxo-4,5-dihydro-1,2,4-oxadiazol-3-yl)(phenyl)methylene]amino}oxy)methyl]pyridin-2-yl}carbamate]
- % efficacy [2]: 97%
- chromatographic logP [1]: 4.66

SMILES: C#CCC(C)(C)OC(=O)Nc1cccc(CON=C(c2ccccc2)c2noc(=S)n2C)n1 [Example 3]
- % efficacy [2]: 93%
- LogP [1]: 4.54^[a]

SMILES: CCCCCCC(=O)Nc1nc(CON=C(c2ccccc2)c2nc(=S)on2C)cs1 [Example 24]
- % efficacy [5]: 84%
- % efficacy [2]: 79%
- LogP [6]: 3.99^[a]

SMILES: CCCCCCCC(=O)Nc1nc(CON=C(c2ccccc2)c2nc(=S)on2C)cs1 [Example 13]
- % efficacy [2]: 98%
- LogP [1]: 4.39^[a]
